# Results: publication PMC8019567 (Parasite, 2021)
# Where two headings read alike, the source gives them in different places.
# Assays:
# [1] = tested on: ticks (Ixodes scapularis); design: method as in internal Sponsor’s data; settings: plasma level, ref internal Sponsor’s data; cited from earlier work
# [2] = in vivo
# Description: (§1) All topical treatments were applied on one spot directly on the skin, after parting the hair, in the midline of the neck between the base of the skull and the shoulder blades. The intra-venous injection was given in the cephalic vein.
# (§2) All blood samples were collected into lithium heparin tubes and processed into plasma by centrifugation.
# (§3) This study was designed to evaluate the main pharmacokinetic parameters (Cmax, Tmax, Clast, Tlast, half-life, AUC, bioavailability) of the three compounds administered topically once in the novel formulation at the recommended minimum dose, and the non-interference of the three compounds between each other.
# (§4) Group 2 was treated topically with esafoxolaner alone, formulated with identical solvents/excipients as those of the novel formulation, for non-interference evaluation of esafoxolaner. […] Group 4 was treated intravenously with esafoxolaner for bioavailability calculation of topical esafoxolaner in the novel formulation.
# (§5) The cat plasma samples and internal standards were subjected to semi-automated solid phase extraction in a 96-well plate format followed by reversed-phase HPLC with gradient elution. The extracted analytes were quantified by an AB Sciex API 5000 mass spectrometer system using an electrospray interface. […] Chromatograms were integrated by the Analyst® 1.6.2 software and peak areas were determined.
# (§6) The validated lower and upper limits of quantitation were 0.2 and 100 ng/mL, respectively. Sample concentrations were determined based on a fortified matrix calibration curve ranging from 0.2 to 100 ng/mL for each analyte with quality control samples, control plasma samples, and acceptance criteria according to EMA and FDA guidelines [4, 7]. Repeatability (precision), accuracy, assay specificity, dilution, recovery and matrix effect, carryover, stability in plasma and all solutions was established.
# (§7) Pharmacokinetic (PK) parameters were calculated from individual plasma concentrations using the non-compartmental analysis function of WinNonlin® software (Phoenix 64 Build, version 6.3). The non-compartmental approach was consistent with the extravascular (topical) or IV bolus route of administration.
# (§8) The peak drug plasma concentration Cmax and the time from dosing to the maximum concentration values Tmax were obtained directly from plasma concentration versus time data for each cat and then averaged for each topical treatment group. The terminal elimination phase was determined using at least the final three observed concentrations and not including Cmax. The first order rate constant, λz, associated with the terminal log-linear portion of the curve was estimated via linear regression of the log plasma concentration versus time curve. The terminal plasma half-life using ln (2)/λz was calculated for each animal, and then averaged for each treatment group. The area under the concentration versus time curve (AUC) from the time of dosing to the time to the last quantifiable concentration (AUC0−Tlast) was calculated using the linear up, log down trapezoidal method, and extrapolated to infinity (AUC0−inf) using the formula AUC0−Tlast + Clast/λz.
# (§9) The systemic clearance of esafoxolaner in plasma (Cls) defined as dose/AUC0−inf, and the volume of distribution at steady state (Vss), which is AUMC0−inf/AUC0−inf × Cls, was calculated from WinNonlin® for the IV esafoxolaner group only. Due to the long terminal plasma half-life of esafoxolaner, each cat was not used as its own control and bioavailability was calculated on the average.
# [3] = Study #2: dose proportionality/linearity after a single topical dose of NexGard Combo at 0.5x, 1x, 2x; assay type: in vivo, cats
# Protocol: Blood samples were collected prior to treatment and over a period of 91 days after the treatment, as detailed in Table 1. […] Dose proportionality for the three active ingredients was assessed by calculating the linear relationship between AUC or Cmax and the dose using the simple linear regression model.
# [4] = first (pilot) study; topical esafoxolaner only, twice at a 28-day interval, 23× the maximum exposure dose; cats; cited from earlier work
# [5] = tested on: C. felis; design: method as in internal Sponsor’s data; settings: plasma level, ref internal Sponsor’s data; cited from earlier work
# [6] = Study #2: multiple-dose kinetics, accumulation and time to steady state (five topical doses at 28-day intervals); assay type: in vivo; settings: repeated topical NexGard Combo at minimum recommended dose at 4-week intervals; cats
# Protocol: Group 4, the accumulation and time to steady state group, was treated five times at 28-day intervals, topically with NexGard® Combo at the minimum recommended dose. In this group, blood samples were collected prior to each treatment, during the 4 weeks following each treatment, and for 8 weeks after the last treatment, as detailed in Table 1.
# Chromatograms were integrated by the Analyst® 1.6.2 software and peak areas were determined.
# The validated lower and upper limits of quantitation were 0.2 and 100 ng/mL, respectively. Sample concentrations were determined based on a fortified matrix calibration curve ranging from 0.2 to 100 ng/mL for each analyte with quality control samples, control plasma samples, and acceptance criteria according to EMA and FDA guidelines.
# Accumulation ratios were calculated using Cmax and AUC for the three active ingredients after the 1st and 5th dose following five topical doses of the novel formulation.
# [7] = Study #1: single-dose pharmacokinetics and non-interference in cats (plasma, LC-MS/MS); settings: NexGard Combo single topical at minimum recommended dose
# Description: as §1, §2, §3, §4, §5, §6, §7, §8, §9
# [8] = design: method as in PMID 24703069; settings: topical Broadline; cats; cited from earlier work
# [9] = in vivo; settings: topical or ocular, 10 mg/kg
# Description: as §1, §2, §3, §4, §5, §6, §7, §8, §9
# [10] = tested on: ear mites; design: method as in PMID 29887026; settings: off-label in cats, 2.5 mg/kg; cited from earlier work
# [11] = 0.5× group compared to 1× group
# [12] = NexGard Combo single topical 0.5× (esafoxolaner 0.72, praziquantel 5, eprinomectin 0.25 mg/kg), cats, mean
# [13] = NexGard Combo single topical 1× (esafoxolaner 1.44, praziquantel 10, eprinomectin 0.5 mg/kg), cats, mean
# [14] = NexGard Combo single topical 2× (esafoxolaner 2.88, praziquantel 20, eprinomectin 1 mg/kg), cats, mean
molecule,measurement,setting,value
"O=C(CNC(=O)c1ccc(C2=NO[C@@](c3cc(Cl)cc(C(F)(F)F)c3)(C(F)(F)F)C2)c2ccccc12)NCC(F)(F)F [Esafoxolaner, esafoxolaner]",EC90,[1],0.0431 µg/mL
same,Vss (volume of distribution),[2],4.0 L/kg
same,absolute (topical) bioavailability,[2],47.2%
same,"time until which efficacious plasma levels (EC90) were maintained, from 24 h",[2],6-8 weeks
same,AUC0−Tlast,"[2]; iv, 1.44 mg/kg",9586 ± 1985 ng·days/mL
same,AUC0−inf,"[2]; iv, 1.44 mg/kg","10,542 ± 2029 day × ng/mL"
same,Cl (systemic clearance),"[2]; iv, 1.44 mg/kg",5.87 ± 1.23 mL/h/kg
same,T1/2 (plasma half-life),"[2]; iv, 1.44 mg/kg",504 ± 101 h
same,Vss (volume of distribution at steady-state),"[2]; iv, 1.44 mg/kg",4.016 ± 1.19 L/kg
same,"half-life, range of individuals","[2]; iv, 1.44 mg/kg",355 to 631 h
same,AUC0−Tlast,"[2]; topical or ocular, 1.44 mg/kg",6368 ± 1665 ng·days/mL
same,AUC0−inf,"[2]; topical or ocular, 1.44 mg/kg",7181 ± 2250 ng·days/mL
same,Cmax,"[2]; topical or ocular, 1.44 mg/kg",218 ± 68 ng/mL
same,T1/2 (plasma half-life),"[2]; topical or ocular, 1.44 mg/kg",499 ± 154 h
same,Tmax,"[2]; topical or ocular, 1.44 mg/kg",90 ± 74.4 h
same,individual plasma half-lives (range),"[2]; topical or ocular, 1.44 mg/kg",19.4 to 27.8 days
same,dose proportionality of PK parameters,[3]; in vivo,dose-proportional
same,persistence of a quantifiable plasma concentration,[3]; in vivo,more than 13 weeks
same,adverse reactions,[4],no significant adverse reactions
same,EC90,[5],0.0191 ± 0.0021 µg/mL
eprinomectin,dose by which steady state was reached,[6],fifth and five
same,AUC0−Tlast Ratio,[3]; [11],0.5
same,Cmax Ratio,[3]; [11],0.4
same,dose proportionality of PK parameters,"[3]; 0.5× to 2× the minimum dose (esafoxolaner 0.72–2.88, praziquantel 5–20, eprinomectin 0.25–1.0 mg/kg), single topical NexGard Combo",dose-proportional
same,AUC0−Tlast Ratio,[3]; 2× group compared to 1× group,2.4
same,Cmax Ratio,[3]; 2× group compared to 1× group,2.3
same,AUC0−Tlast,[3]; [12],53.6 ± 19.9 ng·days/mL
same,Cmax,[3]; [12],9.44 ± 4.26 ng/mL
same,AUC0−Tlast,[3]; [13],97.8 ± 37.4 ng·days/mL
same,Cmax,[3]; [13],24.1 ± 20.8 ng/mL
same,AUC0−Tlast,[3]; [14],233 ± 133 ng·days/mL
same,Cmax,[3]; [14],54.3 ± 35.8 ng/mL
same,mean Tmax,[7],35 h
same,"time to concentrations below the limit of quantitation, on average",[7]; LLOQ 0.2 ng/mL,28 days
same,bioavailability in the Broadline formulation,[8],31%
"O=C(C1CCCCC1)N1CC(=O)N2CCc3ccccc3C2C1 (stereo not drawn) [Praziquantel, praziquantel]",Cmax,[9],107 ± 59 ng/mL
same,Tmax,[9],7.01 h
same,half-life,[9],103 h
same,time at which maximum concentrations were reached (range),[2]; cat,4 to 8 h
same,time of last quantifiable plasma concentrations (range),[2]; cat,7 to 42 days
same,Cmax,"[3]; in vivo, topical or ocular, 5 mg/kg",54.7 ± 28.8 ng/mL
same,Cmax,"[3]; in vivo, topical or ocular, 10 mg/kg",126 ± 87.2 ng/mL
same,Cmax,"[3]; in vivo, topical or ocular, 20 mg/kg",317 ± 209 ng/mL
same,bioavailability in the Broadline formulation,[8],45%
O=C(CNC(=O)c1ccc(C2=NOC(c3cc(Cl)cc(C(F)(F)F)c3)(C(F)(F)F)C2)c2ccccc12)NCC(F)(F)F (stereo not drawn) [afoxolaner],acaricidal efficacy against ear mites,[10],efficacious
